Converted amounts (≈) assume the structure as drawn.
System: Escherichia coli
Test: minimum inhibitory concentration (MIC)
Protocol: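 Broth microdilution MIC (Sensititre BOPO7F bovine plate, CLSI methods) of 19 antimicrobials against field isolates of P. multocida, M. haemolytica, H. somni (deep nasopharyngeal swabs) and E. coli, Enterococcus spp. (rectal swabs) from weaned dairy heifers. Incubation 16-24 h at 35 C. MIC is the lowest concentration preventing visible growth. Values with <= or > lie at the tested range limits. Trimethoprim-sulfamethoxazole is given as the trimethoprim component of a 1:19 mixture.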

C=C[C@]1(C)C[C@@H](OC(=O)CSCCN(CC)CC)[C@]2(C)[C@H](C)CC[C@]3(CCC(=O)[C@H]32)[C@@H](C)[C@@H]1O [Tiamulin]
Conditions | minimum inhibitory concentration [µg/mL]
isolate (source animal id): 8 | 32 (≈ 64.8 µM)
isolate (source animal id): 9 | > 32
isolate (source animal id): 10 | > 32
isolate (source animal id): 11 | > 32
isolate (source animal id): 12 | > 32
isolate (source animal id): 13 | > 32
isolate (source animal id): 14 | > 32
isolate (source animal id): 15 | > 32
isolate (source animal id): 16 | > 32
isolate (source animal id): 98 | > 32
isolate (source animal id): 99 | > 32
isolate (source animal id): 100 | 32 (≈ 64.8 µM)
isolate (source animal id): 101 | > 32
isolate (source animal id): 102 | > 32
isolate (source animal id): 103 | > 32
isolate (source animal id): 104 | > 32
isolate (source animal id): 105 | > 32
isolate (source animal id): 106 | > 32
isolate (source animal id): 107 | > 32
isolate (source animal id): 108 | > 32
isolate (source animal id): 109 | > 32
isolate (source animal id): 110 | > 32
isolate (source animal id): 111 | > 32
isolate (source animal id): 112 | 32 (≈ 64.8 µM)
isolate (source animal id): 113 | > 32
isolate (source animal id): 114 | > 32
isolate (source animal id): 115 | > 32
isolate (source animal id): 116 | 32 (≈ 64.8 µM)
isolate (source animal id): 117 | > 32
isolate (source animal id): 118 | > 32
isolate (source animal id): 119 | > 32
isolate (source animal id): 120 | > 32
isolate (source animal id): 121 | > 32
isolate (source animal id): 122 | > 32
isolate (source animal id): 123 | > 32
isolate (source animal id): 124 | 32 (≈ 64.8 µM)
isolate (source animal id): 125 | 16 (≈ 32.4 µM)
isolate (source animal id): 126 | > 32
isolate (source animal id): 127 | > 32
isolate (source animal id): 128 | 32 (≈ 64.8 µM)
isolate (source animal id): 129 | 32 (≈ 64.8 µM)
isolate (source animal id): 130 | > 32
isolate (source animal id): 131 | > 32
isolate (source animal id): 132 | > 32
isolate (source animal id): 133 | > 32
isolate (source animal id): 134 | > 32
isolate (source animal id): 135 | > 32
isolate (source animal id): 136 | > 32
isolate (source animal id): 137 | > 32
isolate (source animal id): 138 | 32 (≈ 64.8 µM)
isolate (source animal id): 139 | > 32
isolate (source animal id): 140 | > 32
isolate (source animal id): 141 | > 32
isolate (source animal id): 142 | > 32
isolate (source animal id): 143 | > 32
isolate (source animal id): 144 | > 32
isolate (source animal id): 145 | > 32
isolate (source animal id): 146 | > 32
isolate (source animal id): 147 | 32 (≈ 64.8 µM)
isolate (source animal id): 148 | > 32
isolate (source animal id): 149 | > 32
isolate (source animal id): 150 | > 32
isolate (source animal id): 151 | > 32
isolate (source animal id): 152 | 32 (≈ 64.8 µM)
isolate (source animal id): 153 | > 32
isolate (source animal id): 154 | > 32
isolate (source animal id): 155 | 32 (≈ 64.8 µM)
isolate (source animal id): 156 | > 32
isolate (source animal id): 157 | > 32
isolate (source animal id): 158 | > 32
isolate (source animal id): 159 | > 32
isolate (source animal id): 160 | > 32
isolate (source animal id): 161 | > 32
isolate (source animal id): 162 | > 32
isolate (source animal id): 163 | > 32
isolate (source animal id): 164 | > 32
isolate (source animal id): 165 | > 32
isolate (source animal id): 166 | > 32
isolate (source animal id): 167 | > 32
isolate (source animal id): 168 | 32 (≈ 64.8 µM)
isolate (source animal id): 169 | > 32
isolate (source animal id): 170 | 32 (≈ 64.8 µM)
isolate (source animal id): 171 | > 32
isolate (source animal id): 172 | > 32
isolate (source animal id): 173 | > 32
isolate (source animal id): 174 | > 32
isolate (source animal id): 175 | > 32
isolate (source animal id): 176 | > 32
isolate (source animal id): 177 | > 32
isolate (source animal id): 178 | > 32
isolate (source animal id): 179 | > 32
isolate (source animal id): 180 | > 32
isolate (source animal id): 181 | > 32
isolate (source animal id): 182 | > 32
isolate (source animal id): 183 | > 32
isolate (source animal id): 184 | > 32
isolate (source animal id): 185 | > 32
isolate (source animal id): 186 | > 32
isolate (source animal id): 187 | 32 (≈ 64.8 µM)
isolate (source animal id): 188 | > 32

CC[C@H]1OC(=O)C[C@@H](O)[C@H](C)[C@@H](O[C@@H]2O[C@H](C)[C@@H](O)[C@H](N(C)C)[C@H]2O)[C@@H](CCN2CCCCC2)C[C@@H](C)C(=O)/C=C/C(C)=C/[C@@H]1CN1CCCCC1 [Tildipirosin]
Conditions | minimum inhibitory concentration [µg/mL]
isolate (source animal id): 8 | 4 (≈ 5.45 µM)
isolate (source animal id): 9 | 16 (≈ 21.8 µM)
isolate (source animal id): 10 | 8 (≈ 10.9 µM)
isolate (source animal id): 11 | 4 (≈ 5.45 µM)
isolate (source animal id): 12 | 4 (≈ 5.45 µM)
isolate (source animal id): 13 | 4 (≈ 5.45 µM)
isolate (source animal id): 14 | 4 (≈ 5.45 µM)
isolate (source animal id): 15 | 4 (≈ 5.45 µM)
isolate (source animal id): 16 | 4 (≈ 5.45 µM)
isolate (source animal id): 98 | 4 (≈ 5.45 µM)
isolate (source animal id): 99 | 4 (≈ 5.45 µM)
isolate (source animal id): 100 | 2 (≈ 2.72 µM)
isolate (source animal id): 101 | 4 (≈ 5.45 µM)
isolate (source animal id): 102 | 4 (≈ 5.45 µM)
isolate (source animal id): 103 | 4 (≈ 5.45 µM)
isolate (source animal id): 104 | 4 (≈ 5.45 µM)
isolate (source animal id): 105 | 4 (≈ 5.45 µM)
isolate (source animal id): 106 | 16 (≈ 21.8 µM)
isolate (source animal id): 107 | 8 (≈ 10.9 µM)
isolate (source animal id): 108 | 4 (≈ 5.45 µM)
isolate (source animal id): 109 | 4 (≈ 5.45 µM)
isolate (source animal id): 110 | 4 (≈ 5.45 µM)
isolate (source animal id): 111 | 4 (≈ 5.45 µM)
isolate (source animal id): 112 | 4 (≈ 5.45 µM)
isolate (source animal id): 113 | 4 (≈ 5.45 µM)
isolate (source animal id): 114 | 4 (≈ 5.45 µM)
isolate (source animal id): 115 | 8 (≈ 10.9 µM)
isolate (source animal id): 116 | 4 (≈ 5.45 µM)
isolate (source animal id): 117 | > 16
isolate (source animal id): 118 | 8 (≈ 10.9 µM)
isolate (source animal id): 119 | 8 (≈ 10.9 µM)
isolate (source animal id): 120 | 4 (≈ 5.45 µM)
isolate (source animal id): 121 | 4 (≈ 5.45 µM)
isolate (source animal id): 122 | 4 (≈ 5.45 µM)
isolate (source animal id): 123 | 4 (≈ 5.45 µM)
isolate (source animal id): 124 | 2 (≈ 2.72 µM)
isolate (source animal id): 125 | ≤ 1
isolate (source animal id): 126 | 4 (≈ 5.45 µM)
isolate (source animal id): 127 | 8 (≈ 10.9 µM)
isolate (source animal id): 128 | 4 (≈ 5.45 µM)
isolate (source animal id): 129 | 4 (≈ 5.45 µM)
isolate (source animal id): 130 | 4 (≈ 5.45 µM)
isolate (source animal id): 131 | 2 (≈ 2.72 µM)
isolate (source animal id): 132 | 4 (≈ 5.45 µM)
isolate (source animal id): 133 | 4 (≈ 5.45 µM)
isolate (source animal id): 134 | 4 (≈ 5.45 µM)
isolate (source animal id): 135 | 4 (≈ 5.45 µM)
isolate (source animal id): 136 | 4 (≈ 5.45 µM)
isolate (source animal id): 137 | 4 (≈ 5.45 µM)
isolate (source animal id): 138 | 4 (≈ 5.45 µM)
isolate (source animal id): 139 | 2 (≈ 2.72 µM)
isolate (source animal id): 140 | 4 (≈ 5.45 µM)
isolate (source animal id): 141 | 4 (≈ 5.45 µM)
isolate (source animal id): 142 | 4 (≈ 5.45 µM)
isolate (source animal id): 143 | 8 (≈ 10.9 µM)
isolate (source animal id): 144 | 4 (≈ 5.45 µM)
isolate (source animal id): 145 | 4 (≈ 5.45 µM)
isolate (source animal id): 146 | 8 (≈ 10.9 µM)
isolate (source animal id): 147 | 2 (≈ 2.72 µM)
isolate (source animal id): 148 | 4 (≈ 5.45 µM)
isolate (source animal id): 149 | 4 (≈ 5.45 µM)
isolate (source animal id): 150 | 4 (≈ 5.45 µM)
isolate (source animal id): 151 | 4 (≈ 5.45 µM)
isolate (source animal id): 152 | 4 (≈ 5.45 µM)
isolate (source animal id): 153 | 4 (≈ 5.45 µM)
isolate (source animal id): 154 | 4 (≈ 5.45 µM)
isolate (source animal id): 155 | 4 (≈ 5.45 µM)
isolate (source animal id): 156 | 4 (≈ 5.45 µM)
isolate (source animal id): 157 | 4 (≈ 5.45 µM)
isolate (source animal id): 158 | 4 (≈ 5.45 µM)
isolate (source animal id): 159 | 4 (≈ 5.45 µM)
isolate (source animal id): 160 | 4 (≈ 5.45 µM)
isolate (source animal id): 161 | 2 (≈ 2.72 µM)
isolate (source animal id): 162 | 4 (≈ 5.45 µM)
isolate (source animal id): 163 | 4 (≈ 5.45 µM)
isolate (source animal id): 164 | 4 (≈ 5.45 µM)
isolate (source animal id): 165 | 4 (≈ 5.45 µM)
isolate (source animal id): 166 | 4 (≈ 5.45 µM)
isolate (source animal id): 167 | 8 (≈ 10.9 µM)
isolate (source animal id): 168 | 4 (≈ 5.45 µM)
isolate (source animal id): 169 | 4 (≈ 5.45 µM)
isolate (source animal id): 170 | 4 (≈ 5.45 µM)
isolate (source animal id): 171 | 4 (≈ 5.45 µM)
isolate (source animal id): 172 | 4 (≈ 5.45 µM)
isolate (source animal id): 173 | 4 (≈ 5.45 µM)
isolate (source animal id): 174 | 4 (≈ 5.45 µM)
isolate (source animal id): 175 | 8 (≈ 10.9 µM)
isolate (source animal id): 176 | 8 (≈ 10.9 µM)
isolate (source animal id): 177 | 4 (≈ 5.45 µM)
isolate (source animal id): 178 | 4 (≈ 5.45 µM)
isolate (source animal id): 179 | 4 (≈ 5.45 µM)
isolate (source animal id): 180 | 4 (≈ 5.45 µM)
isolate (source animal id): 181 | 16 (≈ 21.8 µM)
isolate (source animal id): 182 | 8 (≈ 10.9 µM)
isolate (source animal id): 183 | 4 (≈ 5.45 µM)
isolate (source animal id): 184 | 8 (≈ 10.9 µM)
isolate (source animal id): 185 | 4 (≈ 5.45 µM)
isolate (source animal id): 186 | 4 (≈ 5.45 µM)
isolate (source animal id): 187 | 2 (≈ 2.72 µM)
isolate (source animal id): 188 | 4 (≈ 5.45 µM)

Reference: the supplement of paper PMC8612539
